Assays:
Assay type in all cases: cell-based
[1] = system: Staphylococcus aureus X400; experiment: MIC, standard broth micro-dilution assay, SA X400
Description: (§1) The antibacterial efficacy of the present compounds is illustrated by Table III. The minimal inhibitory concentrations (MICs) were determined using a standard broth micro-dilution assay.

[2] = system: Enterococcus faecalis 2041; experiment: MIC, standard broth micro-dilution assay, EF 2041
Description: as §1

[3] = system: Staphylococcus aureus SA1199A; experiment: MIC, standard broth micro-dilution assay, SA 1199A
Description: as §1

[4] = system: Staphylococcus aureus S13E
Description: as §1

[5] = system: Enterococcus faecium 180; experiment: MIC, standard broth micro-dilution assay, EF 180
Description: as §1

[6] = system: Resistant Enterococcus faecium and faecalis; experiment: MIC, standard broth micro-dilution assay, Resistant; settings: geometric mean of 4-6 isolates
Description: as §1

[7] = system: Staphylococcus aureus 447; experiment: MIC, standard broth micro-dilution assay, SA 447
Description: as §1

[8] = system: Escherichia coli EC14; experiment: MIC, standard broth micro-dilution assay, EC 14
Description: as §1

[9] = system: Staphylococcus haemolyticus 105; experiment: MIC, standard broth micro-dilution assay, SH 105
Description: as §1

[10] = system: Enterococcus gallinarum 245; experiment: MIC, standard broth micro-dilution assay, EG 245
Description: as §1

[11] = system: Staphylococcus aureus SA1199; experiment: MIC, standard broth micro-dilution assay, SA 1199
Description: as §1

[12] = system: Enterococcus faecium 180-1; experiment: MIC, standard broth micro-dilution assay, EF 180-1
Description: as §1

[13] = system: Enterococcus faecalis 276; experiment: MIC, standard broth micro-dilution assay, EF 276
Description: as §1

[14] = system: Staphylococcus aureus 491; experiment: MIC, standard broth micro-dilution assay, SA 491
Description: as §1

[15] = system: Sensitive Enterococcus faecium and faecalis; experiment: MIC, standard broth micro-dilution assay, Sensitive; settings: geometric mean of 4-6 isolates
Description: as §1

[16] = system: Staphylococcus epidermidis 270; experiment: MIC, standard broth micro-dilution assay, SE 270
Description: as §1

[17] = system: Staphylococcus haemolyticus 415; experiment: MIC, standard broth micro-dilution assay, SH 415
Description: as §1

[18] = system: Haemophilus influenzae RD; experiment: MIC, standard broth micro-dilution assay, HFRD
Description: as §1

[19] = system: Staphylococcus aureus 446; experiment: MIC, standard broth micro-dilution assay, SA 446
Description: as §1

[20] = system: Staphylococcus aureus 489; experiment: MIC, standard broth micro-dilution assay, SA 489
Description: as §1

[21] = system: Staphylococcus aureus X778; experiment: MIC, standard broth micro-dilution assay, SA X778
Description: as §1

| SMILES | minimal inhibitory concentration (MIC), SA X400 [1] | minimal inhibitory concentration (MIC), EF 2041 [2] | minimal inhibitory concentration (MIC), SA 1199A [3] | minimal inhibitory concentration (MIC), SA S13E [4] | minimal inhibitory concentration (MIC), EF 180 [5] | minimal inhibitory concentration (MIC), Resistant [6] | minimal inhibitory concentration (MIC), SA 447 [7] | minimal inhibitory concentration (MIC), EC 14 [8] | minimal inhibitory concentration (MIC), SH 105 [9] | minimal inhibitory concentration (MIC), EG 245 [10] | minimal inhibitory concentration (MIC), SA 1199 [11] | minimal inhibitory concentration (MIC), EF 180-1 [12] | minimal inhibitory concentration (MIC), EF 276 [13] | minimal inhibitory concentration (MIC), SA 491 [14] | minimal inhibitory concentration (MIC), Sensitive [15] | minimal inhibitory concentration (MIC), SE 270 [16] | minimal inhibitory concentration (MIC), SH 415 [17] | minimal inhibitory concentration (MIC), HFRD [18] | minimal inhibitory concentration (MIC), SA 446 [19] | minimal inhibitory concentration (MIC), SA 489 [20] | further results |
| --- | --- | --- | --- | --- | --- | --- | --- | --- | --- | --- | --- | --- | --- | --- | --- | --- | --- | --- | --- | --- | --- |
| CC(C)CC(NC(=O)OC(C)(C)C)C(=O)NC1C(=O)NC(CC(N)=O)C(=O)NC2C(=O)NC3C(=O)NC(C(=O)NC(C(=O)O)c4cc(O)cc(O)c4-c4cc3ccc4O)C(OC3CC(C)(N)C(O)C(C)O3)c3ccc(c(Cl)c3)Oc3cc2cc(c3OC2OC(CO)C(O)C(O)C2O)Oc2ccc(cc2Cl)C1O [Example 36, N^1-(N-BOC-D-leucine) derivative of desepivancosaminyl desleucylA82846B] | 4 | 8 | 4 | 4 | >64 | >128 | 16 | >64 | 2 | 16 | 4 | 4 | 4 | 2 | 16 | 16 | >64 | >64 | 8 | 4 | minimal inhibitory concentration (MIC), SA X778 [21]: 4 |
| CC1OC(OC2C(Oc3c4cc5cc3Oc3ccc(cc3Cl)[C@@H](O)[C@@H](NC(=O)c3ccc(-c6ccccc6)cc3)C(=O)N[C@@H](CC(N)=O)C(=O)N[C@H]5C(=O)N[C@H]3C(=O)NC(C(=O)N[C@H](C(=O)O)c5cc(O)cc(O)c5-c5cc3ccc5O)[C@H](OC3CC(C)(N)C(O)C(C)O3)c3ccc(c(Cl)c3)O4)OC(CO)C(O)C2O)CC(C)(N)C1O (stereo partly drawn) [Example 1, N^1-(p-phenylbenzoyl)desleucylA82846B] | 0.5 | 0.125 | ≦.06 | 0.25 | 64 | >128 | 0.25 | >64 | 2 | 2 | 0.125 | 0.125 | 0.125 | 0.5 | 4 | 0.5 | 4 | no growth | 1 | 0.5 | minimal inhibitory concentration (MIC), SA X778 [21]: 0.125 |
| CC(C)CC(N)C(=O)NC1C(=O)NC(CC(N)=O)C(=O)NC2C(=O)NC3C(=O)NC(C(=O)NC(C(=O)O)c4cc(O)cc(O)c4-c4cc3ccc4O)C(OC3CC(C)(N)C(O)C(C)O3)c3ccc(c(Cl)c3)Oc3cc2cc(c3OC2OC(CO)C(O)C(O)C2O)Oc2ccc(cc2Cl)C1O [Example 37, N^1-D-leucine derivative of desepivancosaminyl-desleucylA82846B] | 0.25 | 0.5 | 0.125 | 0.25 | >64 | >32 | 1 | >64 | 0.25 | 0.5 | 0.5 | 0.25 | 0.25 | 0.5 | 0.87 | 0.5 | 4 | 64 | 0.5 | 0.25 | minimal inhibitory concentration (MIC), SA X778 [21]: 0.25 |
| CC1OC(OC2C(Oc3c4cc5cc3Oc3ccc(cc3Cl)[C@@H](O)[C@@H](NC(=O)[C@@H](Cc3ccc(Cl)cc3)NC(=O)OC(C)(C)C)C(=O)N[C@@H](CC(N)=O)C(=O)N[C@H]5C(=O)N[C@H]3C(=O)NC(C(=O)N[C@H](C(=O)O)c5cc(O)cc(O)c5-c5cc3ccc5O)[C@H](OC3CC(C)(N)C(O)C(C)O3)c3ccc(c(Cl)c3)O4)OC(CO)C(O)C2O)CC(C)(N)C1O (stereo partly drawn) [Example 20, N^1-[N-BOC-D-3-(p-chlorophenyl)alanine] derivative of desleucylA82846B] | ≦.06 | ≦.06 | no growth | 0.125 | 16 | >128 | 0.25 | >64 | 8 | 0.5 | 0.125 | 0.25 | 0.125 | ≦.06 | 2 | 0.125 | 16 | 8 | 0.5 | ≦.06 | minimal inhibitory concentration (MIC), SA X778 [21]: 0.25 |
| CC(C)CC(NCc1ccc(-c2ccccc2)cc1)C(=O)NC1C(=O)NC(CC(N)=O)C(=O)NC2C(=O)NC3C(=O)NC(C(=O)NC(C(=O)O)c4cc(O)cc(O)c4-c4cc3ccc4O)C(OC3CC(C)(N)C(O)C(C)O3)c3ccc(c(Cl)c3)Oc3cc2cc(c3OC2OC(CO)C(O)C(O)C2OC2CC(C)(NCc3ccc(-c4ccccc4)cc3)C(O)C(C)O2)Oc2ccc(cc2Cl)C1O [Example 35, N^1-[N-(p-phenylbenzyl)-D-leucine] derivative of N^DISACC-(p-phenylbenzyl)desleucylA82846B] | 2 | 0.5 | 1 | 2 | 1 | 4.8 | 2 | >64 | 0.5 | 1 | 2 | 0.25 | 1 | 1 | 0.66 | 1 | 2 | >64 | 2 | 2 | minimal inhibitory concentration (MIC), SA X778 [21]: 1 |
